The data set can be described thus: xn = mol fraction of the nth substance listed. The settings on record: 101 kPa, Liquid, x1 = 1; for viscosity: Falling or rolling sphere viscometry; for mass density: Vibrating tube method.

Here are results for 3 compounds from the NIST ThermoML archive (doi:10.1021/je300632p).

Numbers after ± are expanded uncertainties.

As usually defined, the viscosity is the resistance of a fluid to flow. Usually mass density stands for the mass of a sample divided by its volume. Regarding `CCO` [ethanol] + CCCCCO, the viscosity was found to be 1.151 ± 0.012 mPa·s (293.15 K); 1.069 ± 0.011 mPa·s (298.15 K); 0.973 ± 0.011 mPa·s (303.15 K); 0.888 ± 0.01 mPa·s (308.15 K); 0.813 ± 0.01 mPa·s (313.15 K); 0.755 ± 0.01 mPa·s (318.15 K). The viscosity runs as follows: (323.15 K) 0.684 ± 0.009 mPa·s; (328.15 K) 0.63 ± 0.009 mPa·s. Also, the mass density worked out at 790.13 ± 0.12 kg/m3 (293.15 K); 785.86 ± 0.13 kg/m3 (298.15 K); 781.56 ± 0.13 kg/m3 (303.15 K); 777.23 ± 0.13 kg/m3 (308.15 K); 772.86 ± 0.13 kg/m3 (313.15 K); 768.44 ± 0.13 kg/m3 (318.15 K). Also, the mass density is, setting by setting: (323.15 K) 763.97 ± 0.13 kg/m3; (328.15 K) 759.44 ± 0.13 kg/m3.
With `CCO` [ethanol] + CCCCO, the viscosity is recorded as 1.151 ± 0.024 mPa·s (293.15 K); 1.069 ± 0.023 mPa·s (298.15 K); 0.973 ± 0.021 mPa·s (303.15 K); 0.888 ± 0.019 mPa·s (308.15 K); 0.813 ± 0.017 mPa·s (313.15 K); 0.755 ± 0.016 mPa·s (318.15 K). The viscosity came out at 0.684 ± 0.015 mPa·s (323.15 K) and 0.63 ± 0.013 mPa·s (328.15 K). For the same compound, the mass density runs as follows: (293.15 K) 790.13 ± 0.12 kg/m3; (298.15 K) 785.86 ± 0.13 kg/m3; (303.15 K) 781.56 ± 0.13 kg/m3; (308.15 K) 777.23 ± 0.13 kg/m3; (313.15 K) 772.86 ± 0.13 kg/m3; (318.15 K) 768.44 ± 0.13 kg/m3. The mass density by setting is: (323.15 K) 763.97 ± 0.13 kg/m3; (328.15 K) 759.44 ± 0.13 kg/m3.
As to `CCO` [ethanol] + CCCO, the viscosity by setting is: (293.15 K) 1.151 ± 0.012 mPa·s; (298.15 K) 1.069 ± 0.011 mPa·s; (303.15 K) 0.973 ± 0.011 mPa·s; (308.15 K) 0.888 ± 0.01 mPa·s; (313.15 K) 0.813 ± 0.01 mPa·s; (318.15 K) 0.755 ± 0.01 mPa·s. The viscosity reads like this: (323.15 K) 0.684 ± 0.009 mPa·s; (328.15 K) 0.63 ± 0.009 mPa·s. In addition, the mass density is, setting by setting: (293.15 K) 790.13 ± 0.12 kg/m3; (298.15 K) 785.86 ± 0.13 kg/m3; (303.15 K) 781.56 ± 0.13 kg/m3; (308.15 K) 777.23 ± 0.13 kg/m3; (313.15 K) 772.86 ± 0.13 kg/m3; (318.15 K) 768.44 ± 0.13 kg/m3. The mass density is given as 763.97 ± 0.13 kg/m3 (323.15 K) and 759.44 ± 0.13 kg/m3 (328.15 K).
